# Test results published in ChEMBL document CHEMBL5352506, “The Zinc-Binding Group Effect: Lessons from Non-Hydroxamic Acid Vorinostat Analogs” (J Med Chem, 2023).
# Tests used:
# [1] = molecular target: Histone deacetylase (HDAC1 and HDAC2) (Homo sapiens, UniProt Q13547+Q92769); assay: Inhibition of HDAC1/2 in human K562 nuclear extraction; format: cell-free
# Histone deacetylase [2] = format: cell-based, Homo sapiens; conditions: hela
# Histone deacetylase 2 = Histone deacetylase 2 (Homo sapiens, UniProt Q92769)
# Histone deacetylase 4 = Histone deacetylase 4 (Homo sapiens, UniProt P56524); assay: Inhibition of human recombinant HDAC4
# Histone deacetylase 5 = Histone deacetylase 5 (Homo sapiens, UniProt Q9UQL6); assay: Inhibition of human recombinant HDAC5
# Histone deacetylase 7 = molecular target: T1, Histone deacetylase 7 (Homo sapiens, UniProt Q8WUI4); assay: Inhibition of human recombinant HDAC7
# T1 sequence (Q8WUI4 whole entry): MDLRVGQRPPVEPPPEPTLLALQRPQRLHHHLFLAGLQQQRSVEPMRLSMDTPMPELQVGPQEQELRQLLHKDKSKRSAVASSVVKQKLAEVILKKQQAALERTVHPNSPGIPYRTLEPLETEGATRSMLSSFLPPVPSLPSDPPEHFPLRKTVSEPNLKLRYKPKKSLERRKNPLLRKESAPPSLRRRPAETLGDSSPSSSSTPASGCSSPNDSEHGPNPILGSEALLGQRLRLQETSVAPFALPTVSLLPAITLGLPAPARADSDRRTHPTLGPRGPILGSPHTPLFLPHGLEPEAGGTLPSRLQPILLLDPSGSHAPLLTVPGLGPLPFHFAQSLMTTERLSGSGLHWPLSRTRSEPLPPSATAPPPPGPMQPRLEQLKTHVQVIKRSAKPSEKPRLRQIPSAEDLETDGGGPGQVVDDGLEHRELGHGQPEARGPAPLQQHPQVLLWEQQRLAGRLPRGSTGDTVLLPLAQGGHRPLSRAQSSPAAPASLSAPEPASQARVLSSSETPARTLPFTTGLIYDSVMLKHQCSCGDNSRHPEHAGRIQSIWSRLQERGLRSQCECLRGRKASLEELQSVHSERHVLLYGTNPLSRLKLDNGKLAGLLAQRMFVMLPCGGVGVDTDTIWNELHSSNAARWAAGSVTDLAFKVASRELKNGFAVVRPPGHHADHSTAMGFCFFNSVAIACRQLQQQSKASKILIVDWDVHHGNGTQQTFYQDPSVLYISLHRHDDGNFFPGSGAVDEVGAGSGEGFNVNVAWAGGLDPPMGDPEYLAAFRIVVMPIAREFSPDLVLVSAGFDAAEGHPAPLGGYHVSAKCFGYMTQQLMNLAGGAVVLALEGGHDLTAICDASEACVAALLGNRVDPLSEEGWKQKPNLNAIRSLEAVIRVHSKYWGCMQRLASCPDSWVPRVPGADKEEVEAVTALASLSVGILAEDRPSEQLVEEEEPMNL
# [3] = molecular target: T2, Protein deacetylase HDAC6 (Homo sapiens, UniProt Q9UBN7); assay: Inhibition of human recombinant HDAC6
# T2 sequence (Q9UBN7 whole entry): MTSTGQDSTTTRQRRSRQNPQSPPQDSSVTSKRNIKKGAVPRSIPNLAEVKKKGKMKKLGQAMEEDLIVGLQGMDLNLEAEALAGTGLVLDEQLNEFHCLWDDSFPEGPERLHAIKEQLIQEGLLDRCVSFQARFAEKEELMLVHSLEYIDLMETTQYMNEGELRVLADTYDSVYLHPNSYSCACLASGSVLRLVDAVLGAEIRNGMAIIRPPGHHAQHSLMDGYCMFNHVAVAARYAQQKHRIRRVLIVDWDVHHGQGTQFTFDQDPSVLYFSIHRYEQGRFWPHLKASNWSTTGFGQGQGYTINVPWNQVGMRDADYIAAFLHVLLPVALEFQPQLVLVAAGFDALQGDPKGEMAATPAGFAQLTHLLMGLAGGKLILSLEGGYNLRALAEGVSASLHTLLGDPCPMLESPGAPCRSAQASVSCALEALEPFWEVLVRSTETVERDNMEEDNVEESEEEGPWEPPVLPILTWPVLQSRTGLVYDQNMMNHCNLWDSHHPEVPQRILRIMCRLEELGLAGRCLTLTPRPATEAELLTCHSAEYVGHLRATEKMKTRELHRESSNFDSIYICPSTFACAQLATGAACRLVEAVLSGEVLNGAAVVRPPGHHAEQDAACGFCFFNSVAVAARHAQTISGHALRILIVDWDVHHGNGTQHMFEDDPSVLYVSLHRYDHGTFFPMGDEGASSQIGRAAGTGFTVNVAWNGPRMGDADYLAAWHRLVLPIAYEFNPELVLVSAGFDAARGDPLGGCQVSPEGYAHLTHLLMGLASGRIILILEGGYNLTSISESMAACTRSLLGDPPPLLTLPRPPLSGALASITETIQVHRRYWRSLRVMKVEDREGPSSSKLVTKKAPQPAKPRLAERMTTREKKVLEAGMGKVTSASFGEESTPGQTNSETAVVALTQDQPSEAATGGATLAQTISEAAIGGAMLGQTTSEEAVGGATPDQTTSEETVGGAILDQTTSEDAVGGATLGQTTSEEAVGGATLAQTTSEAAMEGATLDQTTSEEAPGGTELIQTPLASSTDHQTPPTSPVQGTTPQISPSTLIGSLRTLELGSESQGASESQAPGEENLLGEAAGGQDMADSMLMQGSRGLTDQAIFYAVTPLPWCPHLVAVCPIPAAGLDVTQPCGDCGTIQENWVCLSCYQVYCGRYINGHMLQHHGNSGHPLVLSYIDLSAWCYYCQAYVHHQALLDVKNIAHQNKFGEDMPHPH
# Histone deacetylase 3 = Histone deacetylase 3 (Homo sapiens, UniProt O15379); assay: Inhibition of human recombinant HDAC3
# Histone deacetylase 8 = molecular target: T3, Histone deacetylase 8 (Homo sapiens, UniProt Q9BY41); assay: Inhibition of human recombinant HDAC8
# T3 sequence (Q9BY41 whole entry): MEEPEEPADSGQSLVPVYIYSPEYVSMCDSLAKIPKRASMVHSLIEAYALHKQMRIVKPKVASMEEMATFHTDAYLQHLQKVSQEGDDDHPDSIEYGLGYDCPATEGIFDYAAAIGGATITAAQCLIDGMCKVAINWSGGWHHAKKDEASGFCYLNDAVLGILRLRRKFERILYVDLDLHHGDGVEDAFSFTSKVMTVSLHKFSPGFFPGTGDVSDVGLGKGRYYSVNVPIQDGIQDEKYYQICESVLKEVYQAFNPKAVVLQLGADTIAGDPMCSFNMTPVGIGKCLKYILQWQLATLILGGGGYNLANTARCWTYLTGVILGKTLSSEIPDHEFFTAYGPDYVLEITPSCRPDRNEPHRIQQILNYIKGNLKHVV
# [4] = molecular target: T4, Polyamine deacetylase HDAC10 (Homo sapiens, UniProt Q969S8); assay: Inhibition of human recombinant HDAC10
# T4 sequence (Q969S8 whole entry): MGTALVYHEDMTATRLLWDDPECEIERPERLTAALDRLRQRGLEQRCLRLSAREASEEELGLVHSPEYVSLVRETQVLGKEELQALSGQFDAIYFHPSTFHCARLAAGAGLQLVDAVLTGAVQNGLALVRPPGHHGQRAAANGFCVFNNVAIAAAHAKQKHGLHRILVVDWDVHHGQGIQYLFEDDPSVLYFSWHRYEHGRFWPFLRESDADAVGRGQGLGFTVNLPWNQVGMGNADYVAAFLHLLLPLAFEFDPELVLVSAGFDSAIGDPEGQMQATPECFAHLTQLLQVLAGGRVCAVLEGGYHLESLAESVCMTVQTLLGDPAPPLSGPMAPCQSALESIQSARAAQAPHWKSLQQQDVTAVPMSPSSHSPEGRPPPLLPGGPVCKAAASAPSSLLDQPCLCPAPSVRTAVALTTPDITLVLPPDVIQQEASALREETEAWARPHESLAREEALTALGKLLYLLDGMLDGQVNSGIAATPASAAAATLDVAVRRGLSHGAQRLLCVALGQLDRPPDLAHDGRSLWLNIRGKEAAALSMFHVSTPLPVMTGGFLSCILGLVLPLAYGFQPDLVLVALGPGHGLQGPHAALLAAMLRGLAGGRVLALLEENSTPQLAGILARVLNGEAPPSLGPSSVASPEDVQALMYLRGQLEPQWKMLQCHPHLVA
# Histone deacetylase 11 = molecular target: T5, Histone deacetylase 11 (Homo sapiens, UniProt Q96DB2); assay: Inhibition of human recombinant HDAC11
# T5 sequence (Q96DB2 whole entry): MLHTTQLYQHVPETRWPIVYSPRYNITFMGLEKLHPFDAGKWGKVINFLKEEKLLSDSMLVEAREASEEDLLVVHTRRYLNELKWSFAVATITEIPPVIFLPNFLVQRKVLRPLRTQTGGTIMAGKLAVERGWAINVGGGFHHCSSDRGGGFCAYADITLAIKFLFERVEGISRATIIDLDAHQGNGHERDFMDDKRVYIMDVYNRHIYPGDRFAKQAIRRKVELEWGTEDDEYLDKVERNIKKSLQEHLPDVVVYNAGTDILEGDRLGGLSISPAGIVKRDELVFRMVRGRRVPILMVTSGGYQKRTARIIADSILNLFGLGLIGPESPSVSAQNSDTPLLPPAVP
# Histone deacetylase [5] = assay: Inhibition of HDAC (unknown origin); format: protein assay, Homo sapiens
# HRT-18 cell line = assay: Antiproliferative activity against human HRT-18 cell line assessed as cell growth inhibition measured after 72 hrs by MTT assay; format: functional, cell-based; conditions: HRT-18, 72 h
# [6] = Antiproliferative activity against human HC-04 cells assessed as cell growth inhibition measured after 72 hrs by MTT assay; format: functional, cell-based; conditions: HC04, 72 h
# HBL-100 = assay: Cytotoxicity against human HBL-100 cells assessed as cell growth inhibition; format: toxicity, cell-based
# Histone deacetylase 1 = Histone deacetylase 1 (Homo sapiens, UniProt Q13547); assay: Inhibition of human recombinant HDAC1
# [7] = Dissociation constant, pKa of the compound; format: physicochemical
# Histone deacetylase 2, sequence (Q92769 whole entry): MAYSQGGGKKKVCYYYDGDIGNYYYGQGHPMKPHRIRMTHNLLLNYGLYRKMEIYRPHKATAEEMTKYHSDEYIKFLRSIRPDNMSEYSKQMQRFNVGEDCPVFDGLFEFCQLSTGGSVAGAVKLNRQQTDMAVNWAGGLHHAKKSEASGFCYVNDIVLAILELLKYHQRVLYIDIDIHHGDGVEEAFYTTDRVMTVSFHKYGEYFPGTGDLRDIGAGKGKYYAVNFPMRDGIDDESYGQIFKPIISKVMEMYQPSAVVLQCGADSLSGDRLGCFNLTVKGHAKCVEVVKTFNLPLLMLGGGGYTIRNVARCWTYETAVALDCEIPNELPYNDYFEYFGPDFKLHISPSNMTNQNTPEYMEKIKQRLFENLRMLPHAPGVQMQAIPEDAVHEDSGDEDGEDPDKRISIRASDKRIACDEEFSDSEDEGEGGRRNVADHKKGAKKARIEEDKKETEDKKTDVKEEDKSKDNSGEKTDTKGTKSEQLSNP
# Histone deacetylase 3, sequence (O15379 whole entry): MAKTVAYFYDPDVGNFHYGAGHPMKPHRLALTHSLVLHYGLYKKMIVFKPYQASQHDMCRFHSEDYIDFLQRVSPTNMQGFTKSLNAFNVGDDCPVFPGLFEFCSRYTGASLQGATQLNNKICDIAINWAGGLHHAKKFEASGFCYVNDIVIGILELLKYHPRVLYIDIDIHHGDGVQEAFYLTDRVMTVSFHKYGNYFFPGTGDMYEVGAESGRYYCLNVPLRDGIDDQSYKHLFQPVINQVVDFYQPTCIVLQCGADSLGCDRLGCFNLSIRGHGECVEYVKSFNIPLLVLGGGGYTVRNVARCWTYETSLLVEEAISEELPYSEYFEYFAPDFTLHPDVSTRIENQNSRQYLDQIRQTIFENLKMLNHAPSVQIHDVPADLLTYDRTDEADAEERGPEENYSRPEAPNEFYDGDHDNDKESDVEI
# Histone deacetylase 1, sequence (Q13547 whole entry): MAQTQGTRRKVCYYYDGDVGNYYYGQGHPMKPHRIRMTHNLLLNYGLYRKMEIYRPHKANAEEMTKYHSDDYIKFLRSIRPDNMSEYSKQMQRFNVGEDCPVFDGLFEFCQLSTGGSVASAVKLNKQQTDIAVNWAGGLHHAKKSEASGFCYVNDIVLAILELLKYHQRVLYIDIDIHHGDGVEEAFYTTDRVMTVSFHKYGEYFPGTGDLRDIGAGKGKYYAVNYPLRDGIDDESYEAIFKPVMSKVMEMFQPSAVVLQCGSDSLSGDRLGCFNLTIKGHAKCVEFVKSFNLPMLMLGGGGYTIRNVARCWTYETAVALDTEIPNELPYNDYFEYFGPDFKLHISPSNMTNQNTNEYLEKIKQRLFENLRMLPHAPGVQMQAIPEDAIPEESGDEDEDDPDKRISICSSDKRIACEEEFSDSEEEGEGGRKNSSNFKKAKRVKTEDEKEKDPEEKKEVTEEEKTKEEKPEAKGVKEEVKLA
# Histone deacetylase 5, sequence (Q9UQL6 whole entry): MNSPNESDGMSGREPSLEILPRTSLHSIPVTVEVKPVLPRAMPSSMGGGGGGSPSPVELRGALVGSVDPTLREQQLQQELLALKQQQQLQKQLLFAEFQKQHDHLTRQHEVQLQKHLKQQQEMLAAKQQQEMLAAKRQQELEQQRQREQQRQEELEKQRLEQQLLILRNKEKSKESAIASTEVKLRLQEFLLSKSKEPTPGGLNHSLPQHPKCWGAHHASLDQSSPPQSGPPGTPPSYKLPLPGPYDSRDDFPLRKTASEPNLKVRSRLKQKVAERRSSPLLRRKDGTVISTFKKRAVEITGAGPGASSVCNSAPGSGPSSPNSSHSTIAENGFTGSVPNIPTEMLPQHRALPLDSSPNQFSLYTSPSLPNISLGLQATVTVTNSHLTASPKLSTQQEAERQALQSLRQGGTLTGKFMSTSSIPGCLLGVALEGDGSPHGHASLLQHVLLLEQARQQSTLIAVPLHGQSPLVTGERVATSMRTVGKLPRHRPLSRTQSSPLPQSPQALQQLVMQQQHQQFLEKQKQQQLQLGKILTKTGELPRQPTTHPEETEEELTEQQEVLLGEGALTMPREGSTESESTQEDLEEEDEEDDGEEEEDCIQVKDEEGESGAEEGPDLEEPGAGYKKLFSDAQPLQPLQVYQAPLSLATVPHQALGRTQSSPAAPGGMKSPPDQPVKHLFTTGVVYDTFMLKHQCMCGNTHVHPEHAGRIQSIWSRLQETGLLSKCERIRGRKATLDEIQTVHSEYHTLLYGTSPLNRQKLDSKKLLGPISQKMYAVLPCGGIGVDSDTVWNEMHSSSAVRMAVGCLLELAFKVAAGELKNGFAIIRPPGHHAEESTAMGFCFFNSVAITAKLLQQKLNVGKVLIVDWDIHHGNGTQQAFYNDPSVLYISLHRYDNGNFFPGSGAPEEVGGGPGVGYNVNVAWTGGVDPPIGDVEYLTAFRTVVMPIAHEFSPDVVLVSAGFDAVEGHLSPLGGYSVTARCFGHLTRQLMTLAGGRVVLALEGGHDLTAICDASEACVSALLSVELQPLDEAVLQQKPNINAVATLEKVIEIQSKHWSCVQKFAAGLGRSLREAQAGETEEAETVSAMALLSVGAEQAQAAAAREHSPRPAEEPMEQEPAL
# Histone deacetylase 4, sequence (P56524 whole entry): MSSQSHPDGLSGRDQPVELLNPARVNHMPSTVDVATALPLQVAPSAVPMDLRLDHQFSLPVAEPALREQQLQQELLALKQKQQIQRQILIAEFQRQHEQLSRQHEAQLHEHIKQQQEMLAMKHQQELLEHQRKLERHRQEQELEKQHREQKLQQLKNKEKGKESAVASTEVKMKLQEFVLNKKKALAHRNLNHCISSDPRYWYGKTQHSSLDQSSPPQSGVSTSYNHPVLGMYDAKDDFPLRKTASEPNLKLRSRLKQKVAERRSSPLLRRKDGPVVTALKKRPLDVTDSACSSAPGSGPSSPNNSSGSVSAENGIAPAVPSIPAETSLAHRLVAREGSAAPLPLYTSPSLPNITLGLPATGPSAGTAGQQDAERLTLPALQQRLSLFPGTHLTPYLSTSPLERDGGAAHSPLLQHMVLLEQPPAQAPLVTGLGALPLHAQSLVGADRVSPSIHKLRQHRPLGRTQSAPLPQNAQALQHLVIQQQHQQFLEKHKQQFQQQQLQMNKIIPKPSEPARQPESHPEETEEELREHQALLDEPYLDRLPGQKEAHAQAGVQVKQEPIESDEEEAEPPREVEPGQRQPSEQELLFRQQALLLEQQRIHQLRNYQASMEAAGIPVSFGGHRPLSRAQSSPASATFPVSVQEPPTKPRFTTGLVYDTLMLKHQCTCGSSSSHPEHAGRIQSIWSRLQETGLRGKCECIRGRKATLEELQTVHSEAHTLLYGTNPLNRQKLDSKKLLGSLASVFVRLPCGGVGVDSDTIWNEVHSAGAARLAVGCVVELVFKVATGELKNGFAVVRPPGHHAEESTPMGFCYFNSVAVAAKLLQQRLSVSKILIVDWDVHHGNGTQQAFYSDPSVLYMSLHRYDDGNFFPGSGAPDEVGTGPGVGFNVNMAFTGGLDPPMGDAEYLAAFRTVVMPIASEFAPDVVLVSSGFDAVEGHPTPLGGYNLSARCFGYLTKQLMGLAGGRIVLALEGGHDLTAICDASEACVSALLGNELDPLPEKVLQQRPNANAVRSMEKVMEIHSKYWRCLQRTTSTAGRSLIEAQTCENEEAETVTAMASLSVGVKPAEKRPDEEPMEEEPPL
compound,measurement,setting,value
CNC(=O)C(=O)CCCCCCOc1ccc(-c2ccccc2)cc1,IC50,[1],0.11 µM
O=C(O)CNC(=O)C(=O)CCCCCCOc1ccc(-c2ccccc2)cc1,IC50,[1],> 50 µM
NC(=O)C(=O)CCCCCCOc1ccc(-c2ccccc2)cc1,IC50,[1],> 50 µM
CN(C)C(=O)C(=O)CCCCCCOc1ccc(-c2ccccc2)cc1,IC50,[1],> 5 µM
O=C(CCCCCCNCCS)Nc1ccccc1,IC50,Histone deacetylase [2],> 100 µM
COc1cccc(NC(=O)CCCCCC(=O)Nc2ccccc2)c1,IC50,Histone deacetylase [2],> 1000 µM
O=C(CO)NCCCCCC(=O)Nc1ccccc1,IC50,Histone deacetylase [2],> 100 µM
CN(C)CCNC(=O)C(=O)CCCCCCOc1ccc(-c2ccccc2)cc1,IC50,[1],> 50 µM
CCNC(=O)C(=O)CCCCCCOc1ccc(-c2ccccc2)cc1,IC50,[1],4.9 µM
NCC(=O)NCCCCCC(=O)Nc1ccccc1,IC50,Histone deacetylase [2],> 100 µM
C[Si](O)(O)CCCCCCC(=O)Nc1ccccc1,IC50,Histone deacetylase 2,6 µM
same,IC50,Histone deacetylase 4,> 100 µM
same,IC50,Histone deacetylase 5,> 100 µM
same,IC50,Histone deacetylase 7,> 100 µM
same,IC50,[3],18 µM
same,IC50,Histone deacetylase 3,0.6 µM
same,IC50,Histone deacetylase 8,27 µM
same,IC50,[4],5 µM
same,IC50,Histone deacetylase 11,57 µM
C[C@@H](O)C(=O)CCCCCCC(=O)Nc1ccccc1,IC50,Histone deacetylase [5],> 33 µM
same,IC50,Histone deacetylase [2],8.9 µM
same,IC50,[3],> 300 µM
C[C@H](O)C(=O)CCCCCCC(=O)Nc1ccccc1,IC50,Histone deacetylase [2],77.1 µM
same,IC50,[3],> 300 µM
NC(=S)NC(=O)CCCCCC(=O)Nc1ccccc1,IC50,HRT-18 cell line,24.1 µM
same,IC50,[6],24.1 µM
same,inhibition (INH),HBL-100,< 12%
C[S+]([O-])CCCCCCC(=O)Nc1ccccc1 (stereo not given),IC50,Histone deacetylase [2],48 µM
O=C(CCCCCCOP(=O)([O-])[O-])Nc1ccccc1.[K+].[K+],IC50,Histone deacetylase [2],3900 µM
NC(=S)NC(=O)CCCCC(=O)Nc1ccccc1,IC50,HRT-18 cell line,30.4 µM
same,IC50,[6],30.4 µM
same,inhibition (INH),HBL-100,< 12%
O=C(CCCCNP(=O)([O-])[O-])Nc1ccccc1.[K+].[K+],IC50,Histone deacetylase [2],360 µM
CCN(CC)C(=S)SSCCCCCC(=O)Nc1ccccc1,IC50,Histone deacetylase 1,0.046 µM
same,IC50,Histone deacetylase 2,0.18 µM
same,IC50,Histone deacetylase [2],0.7 µM
same,IC50,[3],0.068 µM
same,IC50,[4],0.14 µM
O=C(c1ccc(C(=O)C(F)(F)C(F)(F)F)s1)N1CCc2ccccc21,IC50,Histone deacetylase 1,4.2 µM
same,IC50,Histone deacetylase 3,2.9 µM
CCC(=O)CCCCCCC(=O)Nc1ccccc1,IC50,Histone deacetylase [2],> 100 µM
same,IC50,[3],> 300 µM
O=C(CCCCCOP(=O)([O-])[O-])Nc1ccccc1.[K+].[K+],IC50,Histone deacetylase [2],60 µM
O=C(CCCCOP(=O)([O-])[O-])Nc1ccccc1.[K+].[K+],IC50,Histone deacetylase [2],2200 µM
O=C(CCCCCNP(=O)([O-])[O-])Nc1ccccc1.[K+].[K+],IC50,Histone deacetylase [2],70 µM
O=C(CCCCCOP([O-])([O-])=S)Nc1ccccc1.[K+].[K+],IC50,Histone deacetylase [2],50 µM
O=C(CCCCCCNP(=O)([O-])[O-])Nc1ccccc1.[K+].[K+],IC50,Histone deacetylase [2],490 µM
CC(=O)O[C@H](C)C(=O)CCCCCCC(=O)Nc1ccccc1,IC50,Histone deacetylase [2],63.8 µM
same,IC50,[3],> 300 µM
O=C(CCCCCCC(=O)Nc1ccccc1)NO [VORINOSTAT],pKa,[7],9.4
